Assay results from patent US20140127185A1, “METHODS AND COMPOSITIONS USING NEUROPROTECTIVE STEROIDS AND THROMBOLYTIC AGENTS” (priority 2012, published 2014).

Assays:
MMP-9 [1] = assay: Permanent MCAO in rats: MMP-9 in peri-infarct cortex (Western blot, gelatin zymography, immunohistochemistry); assay type: in vivo, rat; details: for Expression of MMP-9 (immunohistochemistry): pMCAO, brain section; for Expression of MMP-9 (immunohistochemistry) / MMP-9 activity/levels (gelatin zymography): peri-infarct cortex at 72 hours; for Expression of MMP-9 (Western blot) / MMP-9 activity/levels (gelatin zymography): permanent MCAO; for Expression of MMP-9 (Western blot): 8 mg/kg i.p. 1 hour and s.c. 6 hours post-occlusion, peri-infarct cortex at 72 hours post-MCAO; for MMP-9 activity/levels (gelatin zymography): 8 mg/kg
Text: (§1) Permanent focal cerebral ischemia is induced in the rat by direct ligation of the MCA. Peri-operative procedures and physiological monitoring are done similarly to those for thrombotic stroke surgery. Briefly, under anesthesia, the left CCA is isolated through a ventral midline neck incision and ligated permanently with a 4-0 surgical silk ligature. The left temporoparietal region of the head is shaved and a 2-cm incision is made vertically between the orbit and the ear canal. The underlying temporalis muscle is excised, and under direct visualization, the […] MCA is exposed through a 2-mm burr hole drilled 2 mm rostral to the fusion of the zygomatic arch with the squamosal bone. Drilling is performed under saline irrigation to the area throughout the procedure to prevent heat injury. […] The site of the occlusion is proximal to the MCA bifurcation, but distal to the origin of the lenticulostriate arteries. Using fine forceps, the dura and arachnoid overlying the MCA is opened and cut. The MCA is cauterized and cut permanently to […] recanalization using a bipolar electrocauterizer without damaging the brain surface. The temporalis muscle and skin is closed in layers, and rats allowed to recover from anesthesia on the heating pad.
(§2) All experimental treatments by injection are made in stock solutions using HBC (2-hydroxypropyl-β-cyclodextrin, 25% w/v solution in H2O) as the solvent. The HBC vehicle allows progesterone and allopregnanolone to be dissolved in a non-toxic aqueous solution. The initial dose of progesterone is given intraperitoneally for rapid absorption; all other injections are given subcutaneously. A simlar protocol may be followed for allopregnanolone.
(§3) Peri-infarct cortical tissue is processed for protein analysis. Tissues are homogenized in T-per (Pierce, Rockford, Ill.) containing protease inhibitor cocktail (P8340, Sigma). Homogenates are centrifuged for 15 minutes at 13,000 g. 40 μg of total protein is separated on 8-12% gel and transferred onto polyvinylidene difluoride (Millipore, Mass., USA; PVDF) membranes at 300 mA for 2 hours. To measure the level of immunoglobulin, the membranes were incubated overnight at 4° C. with anti Rat IgG conjugated to biotin. bEND 3 cells are subjected to hypoxia/reperfusion for 9 hours and then lysed on ice in 100 μl of RIPA buffer. Cell lysated are boiled and then electrophoresed in 12% SDS-PAGE acrylamide gels, transferred onto PVDF membranes, and incubated for 1 hour in TBS-T (tris-buffered saline and 0.1% Tween 20) containing 5% bovine serum albumin (BSA). Membranes are then incubated overnight at 4° C. with primary antibodies against occludin (Invitrogen, Calif., USA; 1:1000), claudin-5 (Invitrogen; 1:1000), and ZO-1 (Invitrogen; 1:1000), washed in TBS-T, and incubated for 1 hour at room temperature with corresponding peroxidase-conjugated secondary antibodies (1:5000; KPL, Gaithersburg, Md.). All blots are stripped and re-incubated with β-actin antibodies (1:5000, Sigma) as a loading control. The peroxidase reaction is developed with an ECL-plus detection kit (Amersham BioScience, Piscataway, N.J.). Intensity of the bands is measured by an Image Gauge version. 4.0 program (FUJI Photo Film Co., Ltd).
(§4) Rats were randomly assigned to receive progesterone (n=5), allopregnanolone (n=5), or vehicle (n=5). Progesterone and allopregnanolone (8 mg/kg) were dissolved in 22.5% 2-hydroxypropyl-β-cyclodextrin (25% w/v solution in water) (HBC) and given by intraperitoneal injection 1 hour post-occlusion. An additional 8 mg/kg subcutaneous injection was given 6 hours after middle cerebral artery occlusion (MCAO).
(§5) The rats were euthanized at 72 hours post-MCAO. The peri-infarct region was sampled using a 4-mm tissue punch.

MMP-2 = assay: Permanent MCAO in rats: MMP-2 in peri-infarct cortex (Western blot, gelatin zymography, immunohistochemistry); assay type: in vivo, rat; details: for Expression of MMP-2 (immunohistochemistry): pMCAO, brain section; for Expression of MMP-2 (immunohistochemistry) / MMP-2 activity/levels (gelatin zymography): peri-infarct cortex at 72 hours; for Expression of MMP-2 (Western blot) / MMP-2 activity/levels (gelatin zymography): permanent MCAO; for Expression of MMP-2 (Western blot): 8 mg/kg i.p. 1 hour and s.c. 6 hours post-occlusion, peri-infarct cortex at 72 hours post-MCAO; for MMP-2 activity/levels (gelatin zymography): 8 mg/kg
Text: as §1, §2, §3, §4, §5

claudin-5 = assay: Claudin-5 in H/R-treated bEND3 cells (Western blot); assay type: cell-based, mouse; details: tPA with H/R
Method: (§6) An immortalized mouse brain endothelial cell line (bEND 3) is purchased from American Type Culture Collection (ATCC, VA, USA) and cultured in Dulbecco's modified Eagle Medium (DMEM, ATCC) supplemented with 10% fetal bovine serum (ATCC). bEND 3 cells are seeded onto the luminal side of a filter (0.4 μm pore size; Corning, Lowell, MCA) coated with fibronectin (5 μg/ml) in 12-well plates for a transendothelial electrical resistance (TEER) test; and in 100-mm dishes for Western blot studies. Cell cultures are incubated at 37° C. in a 5%/95% mixture of CO2 and atmospheric air, and the medium is replaced every 3 days.
Peri-infarct cortical tissue is processed for protein analysis. Tissues are homogenized in T-per (Pierce, Rockford, Ill.) containing protease inhibitor cocktail (P8340, Sigma). Homogenates are centrifuged for 15 minutes at 13,000 g. […] Intensity of the bands is measured by an Image Gauge version. […]
(§7) To mimic ischemia-like conditions in vitro, immortalized mouse brain endothelial (bEND3) cells were exposed to 6 hours of hypoxia and 3 hours of reoxygeneation with or without the administration of tPA at a dose of 20 μ/ml. […] BBB integrity was evaluated by transendothelial membrane electrical resistance (TEER) measurement, MMP-9 activity, and the alteration of tight junction proteins following in vitro H/R injury.

MMP-9 [2] = assay: Active MMP-9 fluorometric FRET peptide assay of ischemic cortex lysates; assay type: in vivo, rat; details: 24 hours after ischemia; tPA at 4.5 hours; vs control and tMCAO groups
Method: A Fluorimetric SensoLyte™ 490 kit (AnaSpec Corp., San Jose, Calif. USA) is used to quantify the specific enzymetic activity of active MMP-9 by using a fluorescence resonance energy transfer peptide containing a fluorescent donor and quenching acceptor (Lin, Hou et al. 2008). The samples (100 μg) are placed in a 96-well plate containing 50 μl of assay buffer. The proteolytic resonance energy transfer peptide is expressed as a fold change in fluorescence intensity at excitation of 355 nm/emission of 460 nm.
For in vivo evaluation, Male SD rats were subjected to MCAO, reperfused at 4.5 hours and then treated with tPA only (5 mg/kg body weight via femoral vein) at 4.5 hours post-stroke or with progesterone (intraperitoneally) at 2 hours post-stroke plus tPA at 4.5 hours post-stroke. Rats were killed at 24 hours post-ischemia and their brains perfused for evaluation of cerebral hemorrhage, brain swelling, BBB permeability, MMP-9 activity, and the alteration of tight junction proteins.
To directly determine MMP-9 activity after ischemia, proteolytic activity of MMP-9 was measured using a fluorescence resonance energy transfer peptide. […] Consistent with the Western blot results, exposure of cells to H/R and tPA for 9 hours reduced the detected levels of occludin, as compared to control bEND 3 cells, while MMP-9 levels were increased in cells exposed to H/R and tPA for 9 hours.

bEND3 cells = assay: Transendothelial electrical resistance (TEER) after hypoxia/reperfusion (H/R); assay type: cell-based, mouse
Method: as §6
The electrical resistance across the membrane are measured using an Millicell ERS Voltohmmeter (Millipore, Billerica, Mass.). The extracellular matrix-treated Transwell inserts are placed in 12-well plates containing culture medium and then used to measure the background resistance. The resistance measurements of these blank filters are then subtracted from those of filters with cells. Values are shown as Q. based on culture inserts.
To mimic ischemia-like conditions in vitro, immortalized mouse brain endothelial (bEND3) cells were exposed to 6 hours of hypoxia and 3 hours of reoxygeneation with or without the administration of tPA at a dose of 20 μ/ml. Reoxygenation was initiated by adding glucose (4.5 g/L)-containing phenol red-free DMEM for 3 hours at 37° C. in 95% air and 5% CO2. The cells were treated with various concentrations progesterone for 24 hours before hypoxia/reperfusion (H/R). BBB integrity was evaluated by transendothelial membrane electrical resistance (TEER) measurement, MMP-9 activity, and the alteration of tight junction proteins following in vitro H/R injury.

MMP-9 [3] = assay: MMP-9 levels in bEND3 cells exposed to H/R and tPA; assay type: cell-based, mouse; details: bEND3 cells exposed to H/R and tPA for 9 hours; progesterone pretreatment
Method: The bEnd 3 cells grown to confluence on coverslips are subjected to the indicated treatments. For […], cells are washed three times with PBS, fixed in 3% paraformaldehyde for 10 minutes, permeabilized with 02% Triton X-100 in PBS for 10 minutes and blocked with 10% BSA and 0.1% Triton X-100 in PBS for 1 hour. After washing with PBS, the monolyers are incubated with a primary antibody for occludin (Invitrogen, 1:200) and MMP-9 (Abeam, Mass., USA, 1:200) overnight at 4° C. The cell monolayers are then washed 3 times with PBS and incubated with Alexa Fluor 488 anti-rabbit and orange anti-mouse (Molecular Probes, Eugene, Oreg.) for 1 hour. After washing in PBS, the coverslips are mounted on glass slides with Vectasheild with dapi (Vecta Laboratories).
as §7
To directly determine MMP-9 activity after ischemia, proteolytic activity of MMP-9 was measured using a fluorescence resonance energy transfer peptide. […]

occludin = assay: Occludin in H/R-treated bEND3 cells (Western blot, immunofluorescence); assay type: cell-based, mouse
Method: as §6, §3
The bEnd 3 cells grown to confluence on coverslips are subjected to the indicated treatments. […]
as §7

[4] = tested on: blood-brain barrier (BBB); assay: BBB disruption: serum IgG in ischemic cortex by Western blot; assay type: in vivo, rat; details: progesterone 8 mg/kg, s.c.; with tPA; 24 hours after injury

SMILES	Expression of MMP-9 (immunohistochemistry) (MMP-9 [1])	Expression of MMP-9 (Western blot) (MMP-9 [1])	MMP-9 activity/levels (gelatin zymography) (MMP-9 [1])	Expression of MMP-2 (immunohistochemistry) (MMP-2)	Expression of MMP-2 (Western blot) (MMP-2)	MMP-2 activity/levels (gelatin zymography) (MMP-2)	Expression of 23-kDa claudin-5 (Western blot) (claudin-5)	MMP-9 activity (FRET peptide) (MMP-9 [2])	H/R-induced decrease of TEER (bEND3 cells; pretreatment with 5, 10 or 20 μM, H/R without tPA)	TEER values compared to untreated (bEND3 cells; progesterone 20 μM, H/R with tPA (FIG. 3C))	MMP-9 levels (MMP-9 [3])	Detected levels of occludin (immunofluorescence) (occludin; bEND3 cells exposed to H/R and tPA for 9 hours, progesterone pretreatment)	Expression of occludin (Western blot) (occludin; bEND3 cells, tPA with H/R)	Levels of serum IgG in ischemic cortex [4]
CC(=O)[C@H]1CC[C@H]2[C@@H]3CC[C@H]4C[C@H](O)CC[C@]4(C)[C@H]3CC[C@]12C [allopregnanolone, 3α-hydroxy-5α-pregnan-20-one]	reduced	decreased	decreased	reduced	decreased	decreased								
CC(=O)[C@H]1CC[C@H]2[C@@H]3CCC4=CC(=O)CC[C@]4(C)[C@H]3CC[C@]12C [progesterone, pregn-4-ene-3,20-dione]	reduced	decreased	decreased	reduced	decreased	decreased	significantly prevented the decrease	inhibited	significantly prevented	significantly higher	completely inhibited	completely inhibited	significantly prevented the decrease	reduced
